Where a SMILES comes first, the peptide text is derived from it. The star is where a group is joined. Cbz = O=C(OCc1ccccc1)*
Tested on: TDII FGFR3
Experiment: Proteasome inhibition in cells expressing TDII FGFR3 (immunoblot)
Assay type: cell-based, mouse
Conditions: 17-AAG-induced decrease, FIG. 11
Text: The two FGFR3 bands reflect glycosylation differences.

## CC(C)C[C@@H](C=O)NC(=O)[C@H](CC(C)C)NC(=O)[C@H](CC(C)C)NC(=O)OCc1ccccc1 [MG132] (Cbz-Leu-Leu-Leu-aldehyde)
  TDII FGFR3 degradation: decreased TDII FGFR3 degradation

From patent US8426396B2, “Treatment for achondroplasia” (Shriners Hospitals for Children, priority 2008, dated 2013)
